Experimental data: US11725036B2, “Modified lipidated relaxin B chain peptides and their therapeutic use” (Sanofi, priority 2018, dated 2023)
≈ marks a conversion by molar mass, not a printed value. Read-outs that look alike come from different tables or passages of the source. Starred links: 1 amine or outer side, 2 acyl side, 3 side chain; linkers in the order of their positions; H or OH if unused. Non-standard residues stand in square brackets, D forms with d. Residues, ends and D or L forms follow the SMILES beside them. Groups on a side chain read outwards from the residue. *: point of attachment. X1 = CCCCCCCCCCCCCCCC(=O)N[C@@H](CCC(=O)N[C@@H](CCC(=O)N[C@@H](CCC(=O)NCCCOCCOCCOCCCNC(=O)CCC(=O)NCCCOCCOCCOCCCNC(=O)CCC(=O)NCCCOCCOCCOCCCN*)C(=O)O)C(=O)O)C(=O)O; γGlu = O=C(O)[C@H](CCC(=O)[*:2])N[*:1]; Stearoyl = CCCCCCCCCCCCCCCCCC(=O)*; Suc = O=C(CCC(=O)[*:2])[*:1]; αMeK = C[C@](N)(CCCCN)C(=O)O; AEEA = NCCOCCOCC(=O)O; Aib = CC(C)(N)C(=O)O

How the values were obtained:
RXFP1 = molecular target: T1, RXFP1 (Homo sapiens, UniProt Q9HBX9); assay: OVCAR5 cAMP assay (HTRF); format: cell-based; settings: for EC50: OVCAR 5 cells expressing endogenous RXFP1, cAMP readout; for Emax: OVCAR 5 cells, maximal cAMP relative to H2-relaxin
T1 construct: OVCAR5 cells expressing endogenous RXFP1; endogenous in cells; host or cells: OVCAR5
T1 sequence (Q9HBX9 1-757): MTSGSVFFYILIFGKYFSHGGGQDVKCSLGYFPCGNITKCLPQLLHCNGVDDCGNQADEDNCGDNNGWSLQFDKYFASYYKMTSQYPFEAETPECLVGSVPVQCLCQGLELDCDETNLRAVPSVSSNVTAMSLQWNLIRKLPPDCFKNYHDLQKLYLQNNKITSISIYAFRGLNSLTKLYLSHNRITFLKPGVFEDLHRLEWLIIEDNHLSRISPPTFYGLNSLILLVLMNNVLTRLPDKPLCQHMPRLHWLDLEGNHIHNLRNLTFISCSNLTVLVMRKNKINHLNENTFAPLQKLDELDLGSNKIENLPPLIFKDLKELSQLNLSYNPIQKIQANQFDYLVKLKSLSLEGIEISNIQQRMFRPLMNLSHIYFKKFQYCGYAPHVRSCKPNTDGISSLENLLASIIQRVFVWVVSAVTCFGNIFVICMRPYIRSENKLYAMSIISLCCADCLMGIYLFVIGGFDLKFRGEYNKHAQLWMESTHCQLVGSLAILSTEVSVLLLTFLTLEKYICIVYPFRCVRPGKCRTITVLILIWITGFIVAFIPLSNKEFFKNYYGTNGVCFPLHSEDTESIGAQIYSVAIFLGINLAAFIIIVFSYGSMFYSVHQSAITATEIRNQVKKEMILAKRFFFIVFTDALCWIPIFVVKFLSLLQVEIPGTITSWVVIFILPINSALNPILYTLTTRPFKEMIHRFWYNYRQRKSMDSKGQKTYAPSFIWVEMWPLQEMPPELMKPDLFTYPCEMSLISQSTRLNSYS
How it was run: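 Endogenous RXFP1 in OVCAR5 cells, pretreated 40 min at 37° C with 1 mM IBMX, then exposed to increasing peptide concentrations in serum-free medium for 30 min at 37° C. cAMP read by HTRF; EC50 by variable-slope sigmoidal fit, Emax as % of H2-relaxin maximal cAMP in same run.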

[1] = Solubility testing in buffer; format: physicochemical; settings: target solubility 10.0 mg/ml
Protocol: Prior to the testing of solubility of a peptide batch, its purity (HPLC-UV) was determined.
Acetate Buffer 50 mM pH4.5: 0.75 g C2H3C02Na,3H2O (Sigma S7545)+0.35 ml CH3CO2H 100% solution dissolved in Millipore water, adjusted to pH with diluted (1:1) CH3CO2H and diluted to 250 ml with Millipore water.
In a 4 ml Ependorph vial, an accurately weighed sample of compound was diluted in study media to obtain target concentration of 2, 6 or 10 mg/ml of pure compound. The sample vials were shacked (rock 'roll shaker) for ˜19 h. 300 μL aliquots were filtered through a Millipore “Solvinert” plate (0.45 μm-PTFE hydrophilic).
pH was measured with a micro electrode
Waters Acquity UPLC System with DAD detector
Column: Waters Peptide Column CSH C18 (130 Å; 1.7 μm; 50*2.1 mm)
Column temperature: 60° C.
Full loop (about 5 μL)—overfill factor 5
Weak et Strong wash: H2O/ACN (75/25; V/V); Seal wash: H2O/IsOH (95/5; V/V). Mobile phase:
Solvent A: 0.05% TFA in H2O; Solvent B: 0.035% TFA in CH3CN
Gradient: from 0 to 12 min B=2% to 60%, from 12 to 14 min B=60% to 100%. Column washing 100% B 1 min, column equilibration 2% B 2.5 min.
UV detector: wavelength: 220 nm.

[2] = acetate buffer 50 mM pH 4.5, read-out: Solubility Acetate buffer pH 4.5
[3] = phosphate buffer 50 mM pH 7.4, read-out: Solubility phosphate buffer pH 7.4

Structure (SMILES)	EC50 (RXFP1) [nM]	Emax (RXFP1) [%]	solubility [1, 2] [µg/mL]	solubility [1, 3] [µg/mL]
CCCCCCCCCCCCCCCC(=O)N[C@@H](CCC(=O)N[C@@H](CCC(=O)N[C@@H](CCC(=O)NCCCOCCOCCOCCCNC(=O)CCC(=O)NCCCOCCOCCOCCCNC(=O)CCC(=O)NCCCOCCOCCOCCCNC(=O)CCC(=O)NCCCC[C@H](NC(=O)CNC(=O)[C@H](CCC(=O)O)NC(=O)C(C)(C)NC(=O)C(C)(C)NC(=O)[C@@H](NC(=O)[C@H](CCCCNC(C)=O)NC(=O)[C@H](C)NC(=O)[C@H](CCCNC(=N)N)NC(=O)[C@@H](NC(=O)[C@H](Cc1ccccc1)NC(=O)[C@H](CCC(=O)O)NC(=O)[C@H](CCCNC(=N)N)NC(=O)CNC(=O)[C@H](CCC(=O)O)NC(=O)[C@H](CC(C)C)NC(C)=O)C(C)C)[C@@H](C)CC)C(=O)N[C@@H](CO)C(=O)N[C@H](C(=O)N[C@@H](Cc1ccccc1)C(=O)N[C@@H](CO)C(=O)N[C@@](C)(CCCCN)C(=O)N[C@@H](CCCNC(=N)N)C(=O)N[C@@H](C)C(=O)N[C@@H](CCCCNC(C)=O)C(N)=O)[C@@H](C)O)C(=O)O)C(=O)O)C(=O)O [compound 24] (Ac-LEGREFVRAK(Ac)I[Aib][Aib]EGK([Suc-X1])STFS[αMeK]RAK(Ac)-NH2)	36.4	100	280 (≈ 63.9 µM)	6930 (≈ 1580 µM)
CCCCCCCCCCCCCCCC(=O)N[C@@H](CCC(=O)N[C@@H](CCC(=O)N[C@@H](CCC(=O)NCCCOCCOCCOCCCNC(=O)CCC(=O)NCCCOCCOCCOCCCNC(=O)CCC(=O)NCCCOCCOCCOCCCNC(=O)CCC(=O)NCCCC[C@H](NC(=O)CNC(=O)[C@H](CCC(=O)O)NC(=O)C(C)(C)NC(=O)C(C)(C)NC(=O)[C@@H](NC(=O)[C@H](CCCCNC(C)=O)NC(=O)[C@H](C)NC(=O)[C@H](CCCNC(=N)N)NC(=O)[C@@H](NC(=O)[C@H](CCC(N)=O)NC(=O)[C@H](CCC(=O)O)NC(=O)[C@H](CCCNC(=N)N)NC(=O)CNC(=O)[C@H](CCC(=O)O)NC(=O)[C@H](CC(C)C)NC(C)=O)C(C)C)[C@@H](C)CC)C(=O)N[C@@H](CO)C(=O)N[C@H](C(=O)N[C@@H](Cc1ccccc1)C(=O)N[C@@H](CO)C(=O)N[C@@](C)(CCCCN)C(=O)N[C@@H](CCCNC(=N)N)C(=O)N[C@@H](C)C(=O)N[C@@H](CCCCNC(C)=O)C(N)=O)[C@@H](C)O)C(=O)O)C(=O)O)C(=O)O [compound 25] (Ac-LEGREQVRAK(Ac)I[Aib][Aib]EGK([Suc-X1])STFS[αMeK]RAK(Ac)-NH2)	28.7	100	6580 (≈ 1510 µM)	6750 (≈ 1550 µM)
CCCCCCCCCCCCCCCCCC(=O)N[C@@H](CCC(=O)N[C@@H](CCC(=O)N[C@@H](CCC(=O)NCCOCCOCC(=O)NCCOCCOCC(=O)NCCOCCOCC(=O)NCCOCCOCC(=O)NCCCC[C@H](NC(=O)CNC(=O)[C@H](CCC(=O)O)NC(=O)C(C)(C)NC(=O)C(C)(C)NC(=O)[C@@H](NC(=O)[C@H](CCCCNC(C)=O)NC(=O)[C@H](C)NC(=O)[C@H](CCCNC(=N)N)NC(=O)[C@@H](NC(=O)[C@H](CCCCN)NC(=O)[C@H](CCC(=O)O)NC(=O)[C@H](CCCNC(=N)N)NC(=O)CNC(=O)[C@H](CCC(=O)O)NC(=O)[C@H](CC(C)C)NC(C)=O)C(C)C)[C@@H](C)CC)C(=O)N[C@@H](CO)C(=O)N[C@H](C(=O)N[C@@H](Cc1ccccc1)C(=O)N[C@@H](CO)C(=O)N[C@@](C)(CCCCN)C(=O)N[C@@H](CCCNC(=N)N)C(=O)N[C@@H](C)C(=O)N[C@@H](CCCCNC(C)=O)C(N)=O)[C@@H](C)O)C(=O)O)C(=O)O)C(=O)O [compound 26] (Ac-LEGREKVRAK(Ac)I[Aib][Aib]EGK([AEEA-AEEA-AEEA-AEEA-γGlu-γGlu-γGlu-Stearoyl])STFS[αMeK]RAK(Ac)-NH2)	0.43	96	6680 (≈ 1640 µM)	6760 (≈ 1660 µM)
CCCCCCCCCCCCCCCC(=O)N[C@@H](CCC(=O)N[C@@H](CCC(=O)N[C@@H](CCC(=O)NCCCOCCOCCOCCCNC(=O)CCC(=O)NCCCOCCOCCOCCCNC(=O)CCC(=O)NCCCOCCOCCOCCCNC(=O)CCC(=O)NCCCC[C@H](NC(=O)CNC(=O)[C@H](CCC(=O)O)NC(=O)C(C)(C)NC(=O)C(C)(C)NC(=O)[C@@H](NC(=O)[C@H](CCCCNC(C)=O)NC(=O)[C@H](C)NC(=O)[C@H](CCCNC(=N)N)NC(=O)[C@@H](NC(=O)[C@H](CCCCN)NC(=O)[C@H](CCC(=O)O)NC(=O)[C@H](CCCNC(=N)N)NC(=O)CNC(=O)[C@H](CCC(=O)O)NC(=O)[C@H](CC(C)C)NC(C)=O)C(C)C)[C@@H](C)CC)C(=O)N[C@@H](CO)C(=O)N[C@H](C(=O)N[C@@H](Cc1c[nH]c2ccccc12)C(=O)N[C@H](CO)C(=O)N[C@@H](CCCCN)C(=O)N[C@@H](CCCNC(=N)N)C(=O)N[C@@H](C)C(=O)N[C@@H](CCCCNC(C)=O)C(N)=O)[C@@H](C)O)C(=O)O)C(=O)O)C(=O)O [compound 44] (Ac-LEGREKVRAK(Ac)I[Aib][Aib]EGK([Suc-X1])STW[dS]KRAK(Ac)-NH2)	2.2	97	11100 (≈ 2520 µM)	10700 (≈ 2440 µM)
CCCCCCCCCCCCCCCC(=O)N[C@@H](CCC(=O)N[C@@H](CCC(=O)N[C@@H](CCC(=O)NCCCOCCOCCOCCCNC(=O)CCC(=O)NCCCOCCOCCOCCCNC(=O)CCC(=O)NCCCOCCOCCOCCCNC(=O)CCC(=O)NCCCC[C@H](NC(=O)CNC(=O)[C@H](CCC(=O)O)NC(=O)[C@@H](NC(=O)C(C)(C)NC(=O)[C@@H](NC(=O)[C@H](CCCCNC(C)=O)NC(=O)[C@H](C)NC(=O)[C@H](CCCNC(=N)N)NC(=O)[C@@H](NC(=O)[C@H](CCCCN)NC(=O)[C@H](CCC(=O)O)NC(=O)[C@H](CCCNC(=N)N)NC(=O)CNC(=O)[C@H](CCC(=O)O)NC(=O)[C@H](CC(C)C)NC(C)=O)C(C)C)[C@@H](C)CC)[C@@H](C)CC)C(=O)N[C@@H](CO)C(=O)N[C@H](C(=O)N[C@@H](Cc1c[nH]c2ccccc12)C(=O)N[C@@H](CO)C(=O)NC(C)(C)C(=O)N[C@@H](CCCNC(=N)N)C(=O)N[C@@H](CCCCN)C(=O)N[C@@H](CCCCNC(C)=O)C(N)=O)[C@@H](C)O)C(=O)O)C(=O)O)C(=O)O [compound 70] (Ac-LEGREKVRAK(Ac)I[Aib]IEGK([Suc-X1])STWS[Aib]RKK(Ac)-NH2)	1.34	94	8240 (≈ 1860 µM)	9680 (≈ 2190 µM)
CCCCCCCCCCCCCCCC(=O)N[C@@H](CCC(=O)N[C@@H](CCC(=O)N[C@@H](CCC(=O)NCCCOCCOCCOCCCNC(=O)CCC(=O)NCCCOCCOCCOCCCNC(=O)CCC(=O)NCCCOCCOCCOCCCNC(=O)CCC(=O)NCCCC[C@H](NC(=O)CNC(=O)[C@H](CCC(=O)O)NC(=O)C(C)(C)NC(=O)C(C)(C)NC(=O)[C@@H](NC(=O)[C@H](CCCCNC(C)=O)NC(=O)[C@H](C)NC(=O)[C@H](CCCNC(=N)N)NC(=O)[C@@H](NC(=O)[C@H](CCCCN)NC(=O)[C@H](CCC(=O)O)NC(=O)[C@H](CCCNC(=N)N)NC(=O)CNC(=O)[C@H](CCC(=O)O)NC(=O)[C@H](CC(C)C)NC(C)=O)C(C)C)[C@@H](C)CC)C(=O)N[C@@H](CO)C(=O)N[C@H](C(=O)N[C@@H](Cc1c[nH]c2ccccc12)C(=O)N[C@@H](CO)C(=O)NC(C)(C)C(=O)N[C@@H](CCCNC(=N)N)C(=O)N[C@@H](C)C(=O)N[C@@H](CCCCN)C(N)=O)[C@@H](C)O)C(=O)O)C(=O)O)C(=O)O [compound 71] (Ac-LEGREKVRAK(Ac)I[Aib][Aib]EGK([Suc-X1])STWS[Aib]RAK-NH2)	0.36	95	8280 (≈ 1930 µM)	8770 (≈ 2040 µM)
